# Test results from patent US20240382520A1, “COMPOSITION FOR PREVENTING AND TREATING CANCER THROUGH MITOCHONDRIAL METABOLISM REGULATION CONTAINING NANOGRAPHENE STRUCTURE” (SEOUL NATIONAL UNIVERSITY R & DB FOUNDATION, priority 2021, published 2024).
# System: colon cancer
# Experiment: Oral administration in colon cancer model induced with Azoxymethane and Dextran sodium sulfate (DSS)
# Format: in vivo, mouse
# Procedure: It was determined whether orally administering the nanographene structure or a modified structure thereof has an effect on cancer occurrence and the mitigation of progression in vivo. Specifically, according to Table 1, rats that were not induced with colon cancer (sham group) and rats that were induced with colon cancer and administered with nanographene oxide (danGO group) were used, and rats that were induced with colon cancer were used as a negative control group (vehicle group), and as a positive control group, rats that were administered with 5-fluorouracil (5-FU), which is an anticancer drug, were prepared. In the negative control group, colon cancer was induced by using Azoxymethane and Dextran sodium sulfate (DSS). In the danGO group which was the experimental group, danGO was orally administered at a dose of 250 μg/mouse 5 times every 3 days to rats that were induced with colon cancer.
# In the same manner as in Example 7-1, the effect of modified nanographene oxide, NGO-NH2, on in vivo cancer occurrence and progression mitigation was confirmed.
# Next, the spleen was separated and the size and weight were measured in order to determine the effect on the degree of systemic inflammation. The spleen is an important lymphoid organ, accounting for about 25% of the body weight of the lymphatic organ. […]
structure (smiles),measurement,setting,value
"O=c1[nH]cc(F)c(=O)[nH]1 [5-FU, 5-fluorouracil]",length of the colon compared to the vehicle group,"Example 7-1, oral, danGO 250 μg/mouse 5 times every 3 days",preserved statistically significantly
same,alleviation of disease (colon length and diameter) compared to the vehicle group,Example 7-2,significantly alleviated
